Reference: patent US12612412B2, “Antiviral heterocyclic compounds” (Enanta Pharmaceuticals, Inc., priority 2021, dated 2026)

Legend:
[1] = tested on: genotype A, "Long" strain RSV; assay: RSV-A assay (CPE protection in Hep-2 cells, ATPlite readout); assay type: cell-based, Human respiratory syncytial virus (HRSV); settings: human respiratory syncytial virus, genotype A “Long” strain RSV, MOI 0.1, CPE protection, read-out: Human RSV-A (“Long”)
Summary of the method: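 In this cytopathic-effect protection format, infected Hep-2 cultures (MOI 0.1) are exposed to compound for 5 days. Surviving cell ATP is quantified with ATPlite, and EC50 is determined.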

[2] = tested on: HMPV clinical isolate TN/1501/A1; assay: HMPV antiviral assay Method-B (clinical isolate TN/1501/A1 in LLC-MK2 cells, ATP-Lite readout); assay type: cell-based, Human metapneumovirus (HMPV); settings: human metapneumovirus, LLC-MK2, 144 h, hMPV WT1501 (clinical isolate TN/1501/A1), 6 days
Summary of the method: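 EC50 derived by four-parameter logistic fit of percent cell health, measured by ATP-Lite luminescence and normalised to virus-only and uninfected-cell controls. Compounds run in duplicate from 10 μM top, 3-fold, 10 points. Infection: LLC-MK2 cells, MOI 0.014, 2 μg/mL final TPCK-trypsin, serum-free, 6 days at 37° C.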

SMILES | EC50 [1] | EC50 [2]
C[C@]1(C(N)=O)COc2c1cc([C@@](O)(CNC(=O)c1ccc(F)c(NC(=O)NC3CC3)c1)C(F)(F)F)nc2-c1ccc(F)cc1 [Example 623] | < 0.2 µM | > 0.5 µM
C[C@]1(C(N)=O)COc2c1cc([C@@](O)(CNC(=O)c1cc(F)c(F)c(NC(=O)NC3CC3)c1)C(F)(F)F)nc2-c1ccc(F)cc1 [Example 624] | < 0.2 µM | > 0.5 µM
COc1ccc(C(=O)NC[C@](O)(c2cc3c(c(-c4ccc(F)cc4)n2)OC[C@]3(C)C(N)=O)C(F)(F)F)cc1NC(=O)NC1CC1 [Example 625] | < 0.2 µM | > 0.5 µM
C[C@]1(C(N)=O)COc2c1cc([C@@](O)(CNC(=O)c1ccc(F)c(NC(=O)NC3CC3)c1)C(F)(F)F)nc2-c1ccc(F)c(Cl)c1 [Example 626] | < 0.2 µM | > 0.5 µM
COc1ccc(C(=O)NC[C@](O)(c2cc3c(c(-c4ccc(F)c(Cl)c4)n2)OC[C@]3(C)C(N)=O)C(F)(F)F)cc1NC(=O)NC1CC1 [Example 627] | < 0.2 µM | > 0.5 µM
C[C@]1(C(N)=O)COc2c1cc([C@@](O)(CNC(=O)c1cc(F)cc(NC(=O)NC3CC3)c1)C(F)(F)F)nc2-c1ccc(F)cc1 [Example 628] | > 0.2 µM | > 0.5 µM
COc1cc(C(=O)NC[C@](O)(c2cc3c(c(-c4ccc(F)c(Cl)c4)n2)OC[C@]3(C)C(N)=O)C2CC2)cc2cc(Cl)c(C)nc12 [Example 633] | < 0.2 µM | < 0.5 µM
COc1cc(C(=O)NC[C@](O)(c2cc3c(c(-c4ccc(F)c(C)c4)n2)OC[C@]3(C)C(N)=O)C(F)(F)F)cc2cn(C3CC3)nc12 [Example 636] | < 0.2 µM | < 0.5 µM
Cc1nc2c(OC3CC3)cc(C(=O)NC[C@](O)(c3cc4c(c(-c5ccc(F)cc5)n3)OC[C@]4(C)C(N)=O)C3CC3)cc2cc1Cl [Example 637] | < 0.2 µM | < 0.5 µM
Cc1nc2c(OC3CC3)cc(C(=O)NC[C@](O)(c3cc4c(c(-c5ccc(F)c(Cl)c5)n3)OC[C@]4(C)C(N)=O)C3CC3)cc2cc1Cl [Example 638] | < 0.2 µM | < 0.5 µM
COc1cc(C(=O)NC[C@](O)(c2cc3c(c(-c4ccc5c(c4)OC(F)(F)O5)n2)OC[C@]3(C)C(N)=O)C(F)(F)F)cn2cc(C3CC3)nc12 [Example 639] | < 0.2 µM | < 0.5 µM
COc1cc(C(=O)NC[C@](O)(c2cc3c(c(-c4ccc5c(c4)OC(F)(F)O5)n2)OC[C@]3(C)C(N)=O)C(F)(F)F)cc2cc(Cl)c(C)nc12 [Example 640] | < 0.2 µM | < 0.5 µM
CC[C@](O)(CNC(=O)c1cc(OC)c2nn(C3CC3)cc2c1)c1cc2c(c(-c3ccc(F)cc3)n1)OC[C@]2(C)C(N)=O [Example 642] | < 0.2 µM | > 0.5 µM
CC[C@](O)(CNC(=O)c1cc(OC)c2nc(C)c(Cl)cc2c1)c1cc2c(c(-c3ccc(F)cc3)n1)OC[C@]2(C)C(N)=O [Example 643] | < 0.2 µM | < 0.5 µM
COc1cc(C(=O)NC[C@](O)(c2cc3c(c(-c4ccc(F)cc4)n2)OC[C@]3(C)C(N)=O)C2CCCC2)cc2cn(C3CC3)nc12 [Example 644] | > 0.2 µM | > 0.5 µM
[2H]C([2H])([2H])[C@](O)(CNC(=O)c1cc(OC)c2nn(C3CC3)cc2c1)c1cc2c(c(-c3ccc(F)cc3)n1)OC[C@]2(C)C(N)=O [Example 645] | < 0.2 µM | > 0.5 µM
[2H]C([2H])([2H])[C@](O)(CNC(=O)c1cc(OC2CC2)c2ncccc2c1)c1cc2c(c(-c3ccc(F)cc3)n1)OC[C@]2(C)C(N)=O [Example 646] | < 0.2 µM | > 0.5 µM
[2H]C([2H])([2H])[C@](O)(CNC(=O)c1cc(OC(F)F)c2ncc(C)cc2c1)c1cc2c(c(-c3ccc(F)cc3)n1)OC[C@]2(C)C(N)=O [Example 647] | < 0.2 µM | > 0.5 µM
COc1cc(C(=O)NC[C@](O)(c2cc3c(c(-c4ccc(F)cc4)n2)OC[C@]3(C)C(N)=O)C(F)(F)F)cc2c(F)n(C3CC3)nc12 [Example 649] | < 0.2 µM | > 0.5 µM
COc1cc(C(=O)NC[C@](O)(c2cc3c(c(-c4ccc5c(c4)OC(F)(F)O5)n2)OC[C@]3(C)C(N)=O)C2CC2)cc2c(F)n(C3CC3)nc12 [Example 650] | < 0.2 µM | < 0.5 µM
COc1cc(C(=O)NC[C@](O)(c2cc3c(c(-c4ccc(F)c(C(F)(F)F)c4)n2)OC[C@]3(C)C(N)=O)C2CC2)cc2cn(C3(F)CC3)nc12 [Example 651] | < 0.2 µM | < 0.5 µM
COc1cc(C(=O)NC[C@](O)(c2cc3c(c(-c4ccc(F)cc4Cl)n2)OC[C@]3(C)C(N)=O)C2CC2)cc2cn(C3(F)CC3)nc12 [Example 652] | < 0.2 µM | < 0.5 µM
COc1cc(C(=O)NC[C@](O)(c2cc3c(c(-c4ccc(F)cc4)n2)OC[C@@H]3C(N)=O)C(F)(F)F)cc2cn(C3CC3)nc12 [Example 653] | < 0.2 µM | > 0.5 µM

SMILES | EC50 [1] | EC50 [2]
COc1cc(C(=O)NC[C@](O)(c2cc3c(c(-c4cc(F)c(F)cc4Cl)n2)OC[C@]3(C)C(N)=O)C(F)(F)F)cc2cn(C3CC3)nc12 [Example 654] | < 0.2 µM | < 0.5 µM
COc1cc(C(=O)NC[C@](O)(c2cc3c(c(-c4ccc(F)c(C(F)(F)F)c4)n2)OC[C@]3(C)C(N)=O)C2CC2)cc2cn(C(F)F)nc12 [Example 655] | < 0.2 µM | < 0.5 µM
COc1cc(C(=O)NC[C@](O)(c2cc3c(c(-c4ccc(F)cc4Cl)n2)OC[C@]3(C)C(N)=O)C2CC2)cc2cn(C(F)F)nc12 [Example 656] | < 0.2 µM | < 0.5 µM
COc1cc(C(=O)NC[C@](O)(c2cc3c(c(-c4cc(F)c(F)cc4Cl)n2)OC[C@]3(C)C(N)=O)C2CC2)cc2cn(C(F)F)nc12 [Example 658] | < 0.2 µM | < 0.5 µM
COc1cc(C(=O)NC[C@](O)(c2cc3c(c(-c4cc(F)c(F)cc4Cl)n2)OC[C@]3(C)C(N)=O)C2CC2)cc2cn(C3(F)CC3)nc12 [Example 659] | < 0.2 µM | < 0.5 µM
COc1cc(C(=O)NC[C@](O)(c2cc3c(c(-c4cc(F)c(F)cc4Cl)n2)OC[C@]3(C)C(N)=O)C2CC2)cc2cc(Br)cnc12 [Example 660] | < 0.2 µM | < 0.5 µM
COc1cc(C(=O)NC[C@](O)(c2cc3c(c(-c4cc(Cl)c(F)cc4F)n2)OC[C@]3(C)C(N)=O)C2CC2)cc2cn(C3CC3)nc12 [Example 661] | < 0.2 µM | < 0.5 µM
COc1cc(C(=O)NC[C@](O)(c2cc3c(c(-c4cc(Cl)c(F)cc4F)n2)OC[C@]3(C)C(N)=O)C2CC2)cc2cn(C(F)F)nc12 [Example 662] | < 0.2 µM | < 0.5 µM
COc1cc(C(=O)NC[C@](O)(c2cc3c(c(-c4cc(Cl)c(F)cc4F)n2)OC[C@]3(C)C(N)=O)C2CC2)cc2cn(C3(F)CC3)nc12 [Example 663] | < 0.2 µM | < 0.5 µM
COc1cc(C(=O)NC[C@](O)(c2cc3c(c(-c4cc(Cl)c(F)cc4F)n2)OC[C@]3(C)C(N)=O)C2CC2)cc2cc(Br)cnc12 [Example 664] | < 0.2 µM | < 0.5 µM
Cc1cnc2c(OC(F)F)cc(C(=O)NC[C@](O)(c3cc4c(c(-c5cc(Cl)c(F)cc5F)n3)OC[C@]4(C)C(N)=O)C3CC3)cc2c1 [Example 665] | < 0.2 µM | < 0.5 µM
COc1cc(C(=O)NC[C@](O)(c2cc3c(c(-c4cc(Cl)c(F)cc4F)n2)OC[C@]3(C)C(N)=O)C2CC2)cc2cc(Cl)c(C)nc12 [Example 666] | < 0.2 µM | < 0.5 µM
C[C@]1(C(N)=O)COc2c1cc([C@@](O)(CNC(=O)c1cc(Cl)c3nn(C4CC4)cc3c1)C1CC1)nc2-c1cc(Cl)c(F)cc1F [Example 668] | < 0.2 µM | < 0.5 µM
COc1cc(C(=O)NC[C@](O)(c2cc3c(c(-c4cc(Cl)c(F)c(Cl)c4)n2)OC[C@]3(C)C(N)=O)C(F)(F)F)cc2cn(C3CC3)nc12 [Example 669] | < 0.2 µM | > 0.5 µM
COc1cc(C(=O)NC[C@](O)(c2cc3c(c(-c4cc(Cl)c(F)c(Cl)c4)n2)OC[C@]3(C)C(N)=O)C(F)(F)F)cc2cn(C(F)F)nc12 [Example 670] | < 0.2 µM | > 0.5 µM
COc1cc(C(=O)NC[C@](O)(c2cc3c(c(-c4cc(Cl)c(F)c(Cl)c4)n2)OC[C@]3(C)C(N)=O)C(F)(F)F)cc2cn(C3(F)CC3)nc12 [Example 671] | < 0.2 µM | > 0.5 µM
COc1cc(C(=O)NC[C@](O)(c2cc3c(c(-c4cc(Cl)c(F)c(Cl)c4)n2)OC[C@]3(C)C(N)=O)C(F)(F)F)cc2cc(Br)cnc12 [Example 672] | < 0.2 µM | > 0.5 µM
C[C@]1(C(N)=O)COc2c1cc([C@@](O)(CNC(=O)c1cc(Cl)c3nn(C4CC4)cc3c1)C(F)(F)F)nc2-c1cc(Cl)c(F)c(Cl)c1 [Example 673] | < 0.2 µM | > 0.5 µM
COc1cc(C(=O)NC[C@](O)(c2cc3c(c(-c4cc(Cl)c(F)c(Cl)c4)n2)OC[C@]3(C)C(N)=O)C(F)(F)F)cc2cc(Cl)c(C)nc12 [Example 674] | < 0.2 µM | > 0.5 µM
Cc1cnc2c(Cl)cc(C(=O)NC[C@](O)(c3cc4c(c(-c5cc(Cl)c(F)c(Cl)c5)n3)OC[C@]4(C)C(N)=O)C(F)(F)F)cc2c1 [Example 675] | < 0.2 µM | > 0.5 µM
COc1cc(C(=O)NC[C@](O)(c2cc3c(c(-c4ccc(Cl)c(F)c4F)n2)OC[C@]3(C)C(N)=O)C2CC2)cc2cn(C3CC3)nc12 [Example 683] | < 0.2 µM | < 0.5 µM
COc1cc(C(=O)NC[C@](O)(c2cc3c(c(-c4ccc(Cl)c(F)c4F)n2)OC[C@]3(C)C(N)=O)C2CC2)cc2cn(C(F)F)nc12 [Example 684] | < 0.2 µM | < 0.5 µM
